Laboratory results published in patent US5137872A, “Growth hormone-releasing factor analogs” (Pitman-Moore, Inc., priority 1989, dated 1992).

Tested on: serum ovine somatotropin (oST)
Test: Serum ovine somatotropin (oST) by RIA after subcutaneous injection of GRF compounds in lambs
Assay type: in vivo
Description: Whether lambs (40-45 kg) were injected subcutaneously with the following GRF compounds in a phosphate buffered saline vehicle (pH 7):
10.0 ug/kg recombinant native hGRF (rhGRF)
5.0 ug/kg synthetic native hGRF (shGRF)
5.0 ug/kg [Pro^0, Gly^15, Met^27 ]-hGRF(1-44)-NH2 (aGRF)
There were 4 animals per treatment group and each treatment was repeated 3 times to give a total of 12 samples/time point/treatment. The animals were bled at time 0, 10, 20, 30, 60 and 120 minutes after injection and analyzed for serum ovine somatotropin (oST) by radioimmunoassay (RIA).
Example 4 was repeated using the following treatments:
20.0 ug/kg recombinant native hGRF (rhGRF)
10.0 ug/kg synthetic native hGRF (shGRF)

[1] = 5.0 ug/kg subcutaneous, FIG. 1 (Example 4)
[2] = 10.0 ug/kg subcutaneous, FIG. 2 (Example 5)

Compound	serum oST concentration at 120 minutes post injection versus time 0 [1]	serum oST concentration at 120 minutes post injection versus time 0 [2]	duration of in vivo biological activity [1]	duration of in vivo bioactivity compared to native GRF [2]
CC[C@H](C)[C@H](NC(=O)[C@H](C)NC(=O)[C@H](CC(=O)O)NC(=O)[C@H](C)NC(=O)[C@@H](N)Cc1ccc(O)cc1)C(=O)N[C@@H](Cc1ccccc1)C(=O)N[C@H](C(=O)N[C@@H](CC(N)=O)C(=O)N[C@@H](CO)C(=O)N[C@@H](Cc1ccc(O)cc1)C(=O)N[C@@H](CCCNC(=N)N)C(=O)N[C@@H](CCCCN)C(=O)N[C@H](C(=O)N[C@@H](CC(C)C)C(=O)NCC(=O)N[C@@H](CCC(N)=O)C(=O)N[C@@H](CC(C)C)C(=O)N[C@@H](CO)C(=O)N[C@@H](C)C(=O)N[C@@H](CCCNC(=N)N)C(=O)N[C@@H](CCCCN)C(=O)N[C@@H](CC(C)C)C(=O)N[C@@H](CC(C)C)C(=O)N[C@@H](CCC(N)=O)C(=O)N[C@@H](CC(=O)O)C(=O)N[C@H](C(=O)N[C@@H](CCSC)C(=O)N[C@@H](CO)C(=O)N[C@@H](CCCNC(=N)N)C(=O)N[C@@H](CCC(N)=O)C(=O)N[C@@H](CCC(N)=O)C(=O)NCC(=O)N[C@@H](CCC(=O)O)C(=O)N[C@@H](CO)C(=O)N[C@@H](CC(N)=O)C(=O)N[C@@H](CCC(N)=O)C(=O)N[C@@H](CCC(=O)O)C(=O)N[C@@H](CCCNC(=N)N)C(=O)NCC(=O)N[C@@H](C)C(=O)N[C@@H](CCCNC(=N)N)C(=O)N[C@@H](C)C(=O)N[C@@H](CCCNC(=N)N)C(=O)N[C@@H](CC(C)C)C(N)=O)[C@@H](C)CC)C(C)C)[C@@H](C)O [native synthetic hGRF, reference compound]	returned to baseline serum oST levels	returned to baseline serum oST levels		
[Pro^0, Gly^15, Met^27 ]-hGRF(1-44)-NH2	oST concentrations greater than those at time 0	oST concentrations greater than those at time 0	prolonged in vivo biological activity	prolonged in vivo bioactivity
